Earlier results on one molecule are cited in paper PMC9164236 (ACS Organic & Inorganic Au, 2022).

Consider `CC[C@@H](C(=O)[C@@H](C)[C@@H](O)[C@H](C)[C@@H]1O[C@@H]([C@@H](CC)C(=O)O)CC[C@@H]1C)[C@H]1O[C@]2(C=C[C@@H](O)[C@]3(CC[C@@](C)([C@H]4CC[C@](O)(CC)[C@H](C)O4)O3)O2)[C@H](C)C[C@@H]1C` [Sal, Salinomycin], for which the “Stability in the presence of iron(III) chloride over time” value was “degrade”. In addition, the “Reduction of the proportion of CSCs relative to paclitaxel” value with breast CSCs was more than 100 fold.
